“Also recorded” adds a separate entry of the source.
Legend:
F. oxysporum = experiment: Single spore isolate plates of F. oxysporum exposed to 1,4-DMN vapour; colony count and mycelium diameter; assay type: cell-based, Fusarium oxysporum
Text: F. oxysporum was isolated from the surface of potato tuber using the Fusarium selective media Nash-Snider, to which cultures were transferred and maintained on nutritionally complex potato dextrose agar plates. DNA sequencing using selective primers NL1, NL2, ITS1F, and ITS2R confirmed the fungus to be F. oxysporum.
A single spore isolation technique was utilized to record the number and growth response of the spores treated with 1,4-DMN in comparison with the spores treated with water (i.e., the Control). Single spore isolate plates were contained in vacuum sealed chambers and incubated at a constant temperature of about 22° C., while exposed to 7.5 μl of 1,4-DMN via aerosol dispersion for four days. After a day of rest, the spores on each plate were measured and counted.
Potato skin scrapings were cultured on the Fusarium selective media Nash Snider Agar, and later transferred and maintained on nutritionally complex Potato Dextrose Agar (PDA) (Step 1.1 in FIG. 1). DNA isolations were performed on single spore isolates using a Power Soil DNA Isolation Kit (Step 1.2 in FIG. 1). Several primers as shown in FIG. 2 were studied for amplification of Fungal DNA. Fusarium selective primers NL1, NL2, ITS1F, and ITS2 allowed PCR amplification of fungal strains genomically similar to Fusarium. […] The DNA were sequenced, and the sequence data were analyzed using NCBI BLASTn sequence alignment (Step 1.4 in FIG. 1). […] The strain identified as F. oxysporum was then subjected to treatments of DMN (7.5 μl) in specialized airtight bins, and incubated at a constant temperature of about 25° C. for four days (Step 1.5 in FIG. 1). […] Then, colony quantity and mycelium diameter were determined (Step 1.6 in FIG. 1).

Fusarium wilt = details: treatment of potato tuber; cited from earlier work
Fusarium spp. = details: two storage trials over two years; cited from earlier work

## Cc1ccc(C)c2ccccc12 [1,4-DMN, 1,4-dimethyl naphthalene]
F. oxysporum; 7.5 μl 1,4-DMN via aerosol dispersion in sealed chamber, four days, about 22° C. / 25° C., Control 9.89 cm
  Average Colony mycelium diameter: 2.94 cm
F. oxysporum; 7.5 μl 1,4-DMN, four days, Control 4.05
  Average Colonies per Plate: 4.125
F. oxysporum; 7.5 μl 1,4-DMN, four days, Control 162
  Total Colonies: 165
F. oxysporum; exposure to 1,4-DMN for four days
  mycelium growth of F. oxysporum versus untreated Control (in words): slower mycelium diameter growth; also recorded: inhibition of mycelium growth

## N#Cc1c[nH]cc1-c1cccc2c1OC(F)(F)O2 [fludioxonil]
Fusarium wilt
  effect in controlling Fusarium wilt development (in words): limited effect

## c1ccc2ncccc2c1 [quinoline]
Fusarium wilt
  effect in controlling Fusarium wilt development (in words): limited effect

## OP(O)O [Phosphorous acid, phosphorous acid]
Fusarium spp.
  efficacy in suppressing tuber infection caused by Fusarium spp. (in words): moderately effective

## OO [hydrogen peroxide]
Fusarium spp.
  efficacy in suppressing tuber infection caused by Fusarium spp. (in words): moderately effective

## CO/C=C(/C(=O)OC)c1ccccc1Oc1cc(Oc2ccccc2C#N)ncn1 [azoxystrobin]
Fusarium spp.
  efficacy in suppressing tuber infection caused by Fusarium spp. (in words): moderately effective
